Experimental data published in patent US20240417405A1, “Substituted Spiro Derivatives” (Janssen Pharmaceutica NV, priority 2021, published 2024).

Legend:
[1] = target: T1, menin/MLL (terbium chelate-labeled menin, FITC-MBM1 peptide) (Homo sapiens, UniProt O00255, T541A); assay: Menin/MLL homogenous time-resolved fluorescence (HTRF) assay; type: binding; conditions: 30 min incubation
T1 construct: Menin (a.a 1-610-6xhis tag)
T1 sequence (O00255 with tags, fused parts or gaps T541A): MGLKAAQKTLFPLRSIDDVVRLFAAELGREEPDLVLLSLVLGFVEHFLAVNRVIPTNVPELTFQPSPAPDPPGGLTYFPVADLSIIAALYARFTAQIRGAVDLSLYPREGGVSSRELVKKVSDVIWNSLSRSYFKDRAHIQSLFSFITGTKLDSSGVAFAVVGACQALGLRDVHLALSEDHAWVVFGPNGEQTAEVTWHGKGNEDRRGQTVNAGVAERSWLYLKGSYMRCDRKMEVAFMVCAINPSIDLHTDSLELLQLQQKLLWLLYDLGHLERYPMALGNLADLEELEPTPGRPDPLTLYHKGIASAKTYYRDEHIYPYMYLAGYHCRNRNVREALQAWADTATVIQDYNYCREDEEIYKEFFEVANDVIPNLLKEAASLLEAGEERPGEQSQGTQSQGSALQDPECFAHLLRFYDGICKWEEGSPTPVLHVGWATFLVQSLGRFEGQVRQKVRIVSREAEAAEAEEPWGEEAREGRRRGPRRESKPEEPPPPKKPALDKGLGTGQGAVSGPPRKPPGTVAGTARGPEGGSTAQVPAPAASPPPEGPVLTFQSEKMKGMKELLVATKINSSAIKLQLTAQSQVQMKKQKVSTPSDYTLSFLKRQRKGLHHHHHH
Outline: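 Compounds were preincubated 30 min at ambient temperature with 200 pM terbium-labeled menin (aa 1-610, His-tagged) in Tris pH 7.5 buffer with DTT and Pluronic, then 75 nM FITC-MBM1 peptide added for 15 min. HTRF ratio 520/490 nm gave % inhibition; IC50 from four-parameter fit, floor 0.1 nM.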

KO-52 cells = assay: Proliferation assay, spheroid-like growth, KO-52 (MLL wildtype control cell line); type: cell-based, human; conditions: Homo sapiens, 192 h, KO-52 control cells, 8 days, confluence as measure of spheroid size; read-out: spheroid assay_OneTime KO-52 IC50
Outline: (§1)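 IC50 derived from a variable-slope dose-response fit of percent confluence change, with DMSO-treated cells as high control and high-dose reference compound as low control. Spheroid-like growth of MOLM14 (200 cells/well) or KO-52 (300 cells/well) in ultra-low attachment plates, 8 days, 37° C, 5% CO2, DMSO normalised to 0.3%, imaged at day 8.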

MOLM14 cells = assay: Proliferation assay, spheroid-like growth, MOLM14 (MLL-AF9 rearranged); type: cell-based, human; conditions: Homo sapiens, MOLM-14, 192 h, 8 days, confluence as measure of spheroid size, read-out: spheroid assay_OneTime MOLM14 IC50
Outline: as §1

In the case of CC(C)[C@H]([C@H]1C[C@@H](N2CC[C@]3(CCN(C)C3=O)C2)C1)N1CC2(CCN(c3ncnnc3Oc3ccc(F)cc3-c3cncnc3C3CC3)C2)C1 (single isomer, unassigned) [Compound 67], the IC50 [1] is reported as 0.1 nM, the IC50 (KO-52 cells) is reported as > 15 µM and the IC50 (MOLM14 cells) is reported as 7 nM.

CC(C)[C@H]([C@H]1C[C@@H](N2CC[C@H](C(C)(C)O)C2)C1)N1CC2(CCN(c3ncnnc3Oc3ccc(F)cc3-c3cncnc3C3CC3)C2)C1 (single isomer, unassigned) [Compound 68] showed an IC50 [1] of 0.1 nM, an IC50 (KO-52 cells) of 4.41 µM and an IC50 (MOLM14 cells) of 5 nM.

CC(C)[C@H]([C@H]1C[C@H](N2CC[C@H](C(C)(C)O)C2)C1)N1CC2(CCN(c3ncnnc3Oc3ccc(F)cc3-c3cncnc3C3CC3)C2)C1 (single isomer, unassigned) [Compound 69] gave an IC50 [1] of 0.1 nM, an IC50 (KO-52 cells) of 14 µM and an IC50 (MOLM14 cells) of 39 nM.

With CC(C)[C@H]([C@H]1C[C@@H](N2CC[C@@H](C(C)(C)O)C2)C1)N1CC2(CCN(c3ncnnc3Oc3ccc(F)cc3-c3cncnc3C3CC3)C2)C1 (single isomer, unassigned) [Compound 70] the IC50 [1] was 0.1 nM, the IC50 (KO-52 cells) was 5.15 µM and the IC50 (MOLM14 cells) was 4 nM.

Molecule CC(C)[C@H]([C@H]1C[C@H](N2CC[C@@H](C(C)(C)O)C2)C1)N1CC2(CCN(c3ncnnc3Oc3ccc(F)cc3-c3cncnc3C3CC3)C2)C1 (single isomer, unassigned) [Compound 71] has an IC50 [1] of 0.1 nM, an IC50 (KO-52 cells) of 9.73 µM and an IC50 (MOLM14 cells) of 60 nM.

CC(C)[C@H]([C@H]1C[C@@H](N2CCC[C@H](O)C2)C1)N1CC2(CCN(c3ncnnc3Oc3ccc(F)cc3-c3cccnc3C3CC3)C2)C1 (single isomer, unassigned) [Compound 78] was tested, and the IC50 [1] was 2.9 nM, the IC50 (KO-52 cells) was 4.64 µM and the IC50 (MOLM14 cells) was 630 nM.

CC(=O)N1CCN([C@H]2C[C@@H]([C@@H](C(C)C)N3CC4(CCN(c5ncnnc5Oc5ccc(F)cc5-c5ncc(C#N)cc5C5CC5)C4)C3)C2)CC1 (single isomer, unassigned) [Compound 79] was tested, and the IC50 [1] was 0.3 nM, the IC50 (KO-52 cells) was 3.66 µM and the IC50 (MOLM14 cells) was 240 nM.

For CC(=O)N1CCN([C@H]2C[C@@H]([C@@H](C(C)C)N3CC4(CCN(c5ncnnc5Oc5ccc(F)cc5-c5cnncc5C5CC5)C4)C3)C2)CC1 (single isomer, unassigned) [Compound 80], the IC50 [1] was 43.2 nM, the IC50 (KO-52 cells) was > 15 µM and the IC50 (MOLM14 cells) was > 940 nM.

For CO[C@H]1CCN([C@H]2C[C@@H]([C@@H](C(C)C)N3CC4(CCN(c5ncnnc5Oc5ccc(F)cc5-c5cnncc5C5CC5)C4)C3)C2)C1 (single isomer, unassigned) [Compound 81], the IC50 [1] was 2 nM, the IC50 (KO-52 cells) was > 15 µM and the IC50 (MOLM14 cells) was 280 nM.

With CC(C)[C@H]([C@H]1C[C@@H](N2CC3(COC3)C2)C1)N1CC2(CCN(c3ncnnc3Oc3ccc(F)cc3-c3cnncc3C3CC3)C2)C1 (single isomer, unassigned) [Compound 82] the IC50 [1] was 0.4 nM, the IC50 (KO-52 cells) was > 15 µM and the IC50 (MOLM14 cells) was 300 nM.

For CC(C)[C@H]([C@H]1C[C@H](N2CC3(COC3)C2)C1)N1CC2(CCN(c3ncnnc3Oc3ccc(F)cc3-c3cnncc3C3CC3)C2)C1 (single isomer, unassigned) [Compound 83], the IC50 [1] was 1.6 nM, the IC50 (KO-52 cells) was > 15 µM and the IC50 (MOLM14 cells) was 980 nM.

With CC(C)[C@H]([C@H]1C[C@@H](N2CC3(CCO3)C2)C1)N1CC2(CCN(c3ncnnc3Oc3ccc(F)cc3-c3cnncc3C3CC3)C2)C1 (single isomer, unassigned) [Compound 84] the IC50 [1] was 5.5 nM, the IC50 (KO-52 cells) was > 15 µM and the IC50 (MOLM14 cells) was 220 nM.

CC(C)[C@H]([C@H]1C[C@H](N2CC3(CCO3)C2)C1)N1CC2(CCN(c3ncnnc3Oc3ccc(F)cc3-c3cnncc3C3CC3)C2)C1 (single isomer, unassigned) [Compound 84a] was tested, and the IC50 [1] was 21.5 nM, the IC50 (KO-52 cells) was > 15 µM and the IC50 (MOLM14 cells) was 850 nM.

For CC(C)[C@@H]([C@H]1C[C@@H](N2CCC(O)C(F)C2)C1)N1CC2(CCN(c3ncnnc3Oc3ccc(F)cc3-c3cncnc3C3CC3)C2)C1 (single isomer, unassigned) [Compound 85], the IC50 [1] was 25.4 nM, the IC50 (KO-52 cells) was > 15 µM and the IC50 (MOLM14 cells) was 1560 nM.

CC(C)[C@@H]([C@H]1C[C@H](N2CCC(O)C(F)C2)C1)N1CC2(CCN(c3ncnnc3Oc3ccc(F)cc3-c3cncnc3C3CC3)C2)C1 (single isomer, unassigned) [Compound 86] was tested, and the IC50 [1] was 17.2 nM, the IC50 (KO-52 cells) was > 15 µM and the IC50 (MOLM14 cells) was 650 nM.

With CC1CN([C@H]2C[C@@H]([C@H](C(C)C)N3CC4(CCN(c5ncnnc5Oc5ccc(F)cc5-c5cncnc5C5CC5)C4)C3)C2)CCC1O (single isomer, unassigned) [Compound 87] the IC50 [1] was 1.9 nM, the IC50 (KO-52 cells) was > 15 µM and the IC50 (MOLM14 cells) was 820 nM.

CC(C)[C@@H]([C@H]1C[C@@H](N2CCC(O)CC2)C1)N1CC2(CCN(c3ncnnc3Oc3ccc(F)cc3-c3cncnc3C3CC3)C2)C1 (single isomer, unassigned) [Compound 88] was tested, and the IC50 [1] was 2.3 nM, the IC50 (KO-52 cells) was > 15 µM and the IC50 (MOLM14 cells) was 410 nM.

CC(=O)N1CCN([C@H]2C[C@@H]([C@H](C(C)C)N3CC4(CCN(c5ncnnc5Oc5ccc(F)cc5-c5cccnc5C5CC5)C4)C3)C2)CC1 (single isomer, unassigned) [Compound 89] was tested, and the IC50 [1] was 0.2 nM, the IC50 (KO-52 cells) was 6.18 µM and the IC50 (MOLM14 cells) was 20 nM.

For CC(C)[C@@H]([C@H]1C[C@@H](N(C)C)C1)N1CC2(CCN(c3ncnnc3Oc3ccc(F)cc3-c3cccnc3C3CC3)C2)C1 (single isomer, unassigned) [Compound 90], the IC50 [1] was 0.1 nM, the IC50 (KO-52 cells) was 0.54 µM and the IC50 (MOLM14 cells) was 2 nM.

CC(C)[C@@H]([C@H]1C[C@H](N(C)C)C1)N1CC2(CCN(c3ncnnc3Oc3ccc(F)cc3-c3cccnc3C3CC3)C2)C1 (single isomer, unassigned) [Compound 91] showed an IC50 [1] of 0.1 nM, an IC50 (KO-52 cells) of 1.03 µM and an IC50 (MOLM14 cells) of 26 nM.

CC(C)[C@@H]([C@H]1C[C@@H](N2CCN(C(=O)N(C)C)CC2)C1)N1CC2(CCN(c3ncnnc3Oc3ccc(F)cc3-c3cccnc3C3CC3)C2)C1 (single isomer, unassigned) [Compound 92] gave an IC50 [1] of 0.1 nM, an IC50 (KO-52 cells) of 0.78 µM and an IC50 (MOLM14 cells) of 7 nM.

Molecule CC(C)[C@@H]([C@H]1C[C@@H](N2CCC[C@@H](O)C2)C1)N1CC2(CCN(c3ncnnc3Oc3ccc(F)cc3-c3cccnc3C3CC3)C2)C1 (single isomer, unassigned) [Compound 93] has an IC50 [1] of 0.1 nM, an IC50 (KO-52 cells) of 0.49 µM and an IC50 (MOLM14 cells) of 3 nM.

For CC(C)[C@H]([C@H]1C[C@@H](N2CC3(COC3)C2)C1)N1CC2(CCN(c3ncnnc3Oc3ccc(F)cc3-c3ncc(C#N)cc3C3CC3)C2)C1 (single isomer, unassigned) [Compound 94], the IC50 [1] was 0.1 nM, the IC50 (KO-52 cells) was 3.39 µM and the IC50 (MOLM14 cells) was 25 nM.

CC(C)[C@H]([C@H]1C[C@H](N2CC3(COC3)C2)C1)N1CC2(CCN(c3ncnnc3Oc3ccc(F)cc3-c3ncc(C#N)cc3C3CC3)C2)C1 (single isomer, unassigned) [Compound 95] gave an IC50 [1] of 0.1 nM, an IC50 (KO-52 cells) of 11.3 µM and an IC50 (MOLM14 cells) of 210 nM.

With CC(=O)N1CCN([C@H]2C[C@@H]([C@H](C(C)C)N3CC4(CCN(c5ncnnc5Oc5ccc(F)cc5-c5ncc(C#N)cc5C5CC5)C4)C3)C2)CC1 (single isomer, unassigned) [Compound 96] the IC50 [1] was 153 nM, the IC50 (KO-52 cells) was > 15 µM and the IC50 (MOLM14 cells) was > 940 nM.

For CC(C)[C@@H]([C@H]1C[C@@H](N2C[C@H]3COC[C@H]3C2)C1)N1CC2(CCN(c3ncnnc3Oc3ccc(F)cc3-c3ncncc3C3CC3)C2)C1 (single isomer, unassigned) [Compound 97], the IC50 [1] was 0.1 nM, the IC50 (KO-52 cells) was 0.31 µM and the IC50 (MOLM14 cells) was 3 nM.

CC(C)[C@@H]([C@H]1C[C@@H](N2CCC(S(C)(=O)=O)CC2)C1)N1CC2(CCN(c3ncnnc3Oc3ccc(F)cc3-c3ncncc3C3CC3)C2)C1 (single isomer, unassigned) [Compound 98] showed an IC50 [1] of 0.4 nM, an IC50 (KO-52 cells) of 4.35 µM and an IC50 (MOLM14 cells) of 58 nM.

For CC(C)[C@@H]([C@H]1C[C@@H](N2CC[C@](C)(O)C2)C1)N1CC2(CCN(c3ncnnc3Oc3ccc(F)cc3-c3ncncc3C3CC3)C2)C1 (single isomer, unassigned) [Compound 99], the IC50 [1] was 0.1 nM, the IC50 (KO-52 cells) was 2 µM and the IC50 (MOLM14 cells) was 2 nM.
